One experiment concerns the target B-Raf V600E (Homo sapiens (Human), UniProt P15056, V600E). As to the kind of experiment: B-Raf V600E kinase biochemical activity assay (AlphaScreen, biotin-MEK1 substrate). As to conditions: 100 μM ATP. Put shortly:
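B-Raf V600E (0.1 ng) phosphorylated 100 nM biotin-MEK1 with 100 μM ATP (final) in HEPES pH 7.0 with Mg2+/Mn2+ for 45 min at room temperature. Compounds were tested over an 8-point serial dilution. Phospho-MEK1/2 was detected by AlphaScreen after 3 h with beads, and IC50 came from signal versus concentration.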
Background: In Alpha technology, singlet oxygen from a donor bead excites a nearby acceptor bead.

For experiment [1], the system named is COLO205 colon adenocarcinoma cells (B-Raf V600E mutation). Put plainly: COLO205 cell growth inhibition (ATPlite). The settings on record: Homo sapiens, COLO 205, 72 h, 3 days. Format: cell-based. An outline of the steps:
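Cells treated for 3 days at 37 °C, 5% CO2 with an 8-point 1:3 dilution series, top final concentration 10 μM, DMSO control. ATPlite luminescence used as a measure of cell number; IC50 from reading versus concentration.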

Sequence of B-Raf V600E (P15056 whole entry V600E): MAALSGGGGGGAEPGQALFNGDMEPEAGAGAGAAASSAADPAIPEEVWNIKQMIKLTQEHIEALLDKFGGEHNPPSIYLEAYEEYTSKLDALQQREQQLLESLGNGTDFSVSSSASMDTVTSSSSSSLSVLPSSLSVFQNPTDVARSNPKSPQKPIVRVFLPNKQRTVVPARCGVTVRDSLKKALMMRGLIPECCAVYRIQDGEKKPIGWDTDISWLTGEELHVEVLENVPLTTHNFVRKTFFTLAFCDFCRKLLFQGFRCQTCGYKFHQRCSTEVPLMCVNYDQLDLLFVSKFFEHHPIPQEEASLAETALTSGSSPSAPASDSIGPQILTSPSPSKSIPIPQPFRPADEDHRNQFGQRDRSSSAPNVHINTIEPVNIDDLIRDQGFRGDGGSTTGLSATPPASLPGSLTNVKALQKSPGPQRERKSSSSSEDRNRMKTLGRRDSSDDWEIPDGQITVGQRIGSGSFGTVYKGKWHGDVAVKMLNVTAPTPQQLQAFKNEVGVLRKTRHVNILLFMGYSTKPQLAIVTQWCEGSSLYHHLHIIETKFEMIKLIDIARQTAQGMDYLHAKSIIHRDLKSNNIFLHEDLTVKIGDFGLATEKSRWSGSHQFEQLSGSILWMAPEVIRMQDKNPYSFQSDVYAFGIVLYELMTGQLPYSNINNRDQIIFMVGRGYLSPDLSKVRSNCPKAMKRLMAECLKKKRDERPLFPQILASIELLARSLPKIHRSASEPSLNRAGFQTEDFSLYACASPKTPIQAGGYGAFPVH

The term IC50 denotes the concentration that gives 50% inhibition. Low values mean greater potency in that assay, high ones weaker potency in that assay. With `O=C(c1cccc(NS(=O)(=O)N2CCCC2)c1F)c1c[nH]c2ncc(-c3ccc(C4(C(=O)O)CC4)cc3)cc12` [Compound P-0243, 1-[4-[3-[2-fluoro-3-(pyrrolidin-1-ylsulfonylamino)benzoyl]-1H-pyrrolo[2,3-b]pyridin-5-yl]phenyl]cyclopropanecarboxylic acid], the half-maximal inhibitory concentration (IC50) was less than 0.1 µM against B-Raf V600E and greater than 1 µM in experiment [1].

For the compound `CC1(C)CCN(S(=O)(=O)Nc2cccc(C(=O)c3c[nH]c4ncc(-c5cnc(C6CC6)nc5)cc34)c2F)C1` [Compound P-0246, N-[3-[5-(2-cyclopropylpyrimidin-5-yl)-1H-pyrrolo[2,3-b]pyridine-3-carbonyl]-2-fluoro-phenyl]-3,3-dimethyl-pyrrolidine-1-sulfonamide], the half-maximal inhibitory concentration (IC50) was less than 0.1 µM at B-Raf V600E and greater than 1 µM in experiment [1].

`CC1CCN(S(=O)(=O)Nc2cccc(C(=O)c3c[nH]c4ncc(-c5cnc(C6CC6)nc5)cc34)c2F)C1` (stereo not drawn) [Compound P-0247, N-[3-[5-(2-cyclopropylpyrimidin-5-yl)-1H-pyrrolo[2,3-b]pyridine-3-carbonyl]-2-fluoro-phenyl]-3-methyl-pyrrolidine-1-sulfonamide]: the IC50 is less than 0.1 µM against B-Raf V600E and less than 1 µM in experiment [1].

Regarding `CN(C1CC1)S(=O)(=O)Nc1cccc(C(=O)c2c[nH]c3ncc(-c4cnc(C5CC5)nc4)cc23)c1F` [Compound P-0249, 3-[3-[[cyclopropyl(methyl)sulfamoyl]amino]-2-fluoro-benzoyl]-5-(2-cyclopropylpyrimidin-5-yl)-1H-pyrrolo[2,3-b]pyridine], the figures for the concentration for half-maximal inhibition (IC50) (on B-Raf V600E; in experiment [1]) were less than 0.1 µM and less than 1 µM, respectively.

Consider `CCCNS(=O)(=O)Nc1cccc(C(=O)c2c[nH]c3ncc(-c4cnc(C5CC5)nc4)cc23)c1F` [Compound P-0251, [5-(2-cyclopropylpyrimidin-5-yl)-1H-pyrrolo[2,3-b]pyridin-3-yl]-[2-fluoro-3-(propylsulfamoylamino)phenyl]methanone], for which the values for the concentration for half-maximal inhibition (IC50) (on B-Raf V600E; in experiment [1]) were less than 0.1 µM and greater than 1 µM, respectively.

Regarding `CN(C1CC1)S(=O)(=O)Nc1ccc(F)c(C(=O)c2c[nH]c3ncc(-c4cnc(C5CC5)nc4)cc23)c1F` [Compound P-0252, 3-[3-[[cyclopropyl(methyl)sulfamoyl]amino]-2,6-difluoro-benzoyl]-5-(2-cyclopropylpyrimidin-5-yl)-1H-pyrrolo[2,3-b]pyridine], the IC50 on B-Raf V600E was less than 0.1 µM; in experiment [1], less than 1 µM.

For the compound `NC(=O)C1(c2ccc(-c3cnc4[nH]cc(C(=O)c5cccc(NS(=O)(=O)N6CCCC6)c5F)c4c3)cc2)CC1` [Compound P-0253, 1-[4-[3-[2-fluoro-3-(pyrrolidin-1-ylsulfonylamino)benzoyl]-1H-pyrrolo[2,3-b]pyridin-5-yl]phenyl]cyclopropanecarboxamide], the half-inhibitory concentration (IC50) against B-Raf V600E was less than 0.1 µM; in experiment [1], greater than 1 µM.

`CCOc1ncc(-c2cnc3[nH]cc(C(=O)c4c(F)ccc(NS(=O)(=O)N(C)CC)c4F)c3c2)cn1` [Compound P-0256, 5-(2-ethoxypyrimidin-5-yl)-3-[3-[[ethyl(methyl)sulfamoyl]amino]-2,6-difluoro-benzoyl]-1H-pyrrolo[2,3-b]pyridine]: the figures for the concentration for half-maximal inhibition (IC50) (against B-Raf V600E; in experiment [1]) were less than 0.1 µM and less than 1 µM, respectively.

As for `CCN(C)S(=O)(=O)Nc1ccc(F)c(C(=O)c2c[nH]c3ncc(-c4cnc(N5CCOCC5)nc4)cc23)c1F` [Compound P-0258, 4-[5-[3-[3-[[ethyl(methyl)sulfamoyl]amino]-2,6-difluoro-benzoyl]-1H-pyrrolo[2,3-b]pyridin-5-yl]pyrimidin-2-yl]morpholine], the IC50 is less than 0.1 µM at B-Raf V600E and less than 1 µM in experiment [1].

In the case of `CCN(C)S(=O)(=O)Nc1ccc(F)c(C(=O)c2c[nH]c3ncc(-c4cccc(N5CCOCC5)c4)cc23)c1F` [Compound P-0259, 4-[3-[3-[3-[[ethyl(methyl)sulfamoyl]amino]-2,6-difluoro-benzoyl]-1H-pyrrolo[2,3-b]pyridin-5-yl]phenyl]morpholine], the 50% inhibitory concentration (IC50) is less than 0.1 µM on B-Raf V600E and less than 1 µM in experiment [1].

With `CN1CCN(c2ncc(-c3cnc4[nH]cc(C(=O)c5c(F)ccc(NS(=O)(=O)N6CCCC6)c5F)c4c3)cn2)CC1` [Compound P-0260, N-[2,4-difluoro-3-[5-[2-(4-methylpiperazin-1-yl)pyrimidin-5-yl]-1H-pyrrolo[2,3-b]pyridine-3-carbonyl]phenyl]pyrrolidine-1-sulfonamide], the IC50 against B-Raf V600E was less than 0.1 µM; in experiment [1] it was less than 1 µM.

As to `O=C(c1c(F)ccc(NS(=O)(=O)N2CCCC2)c1F)c1c[nH]c2ncc(-c3cnc(N4CCNCC4)nc3)cc12` [Compound P-0261, N-[2,4-difluoro-3-[5-(2-piperazin-1-ylpyrimidin-5-yl)-1H-pyrrolo[2,3-b]pyridine-3-carbonyl]phenyl]pyrrolidine-1-sulfonamide], the concentration for half-maximal inhibition (IC50) is less than 0.1 µM against B-Raf V600E and less than 1 µM in experiment [1].

With `O=C(c1c(F)ccc(NS(=O)(=O)N2CCCC2)c1F)c1c[nH]c2ncc(-c3cnc(N4CCC(O)CC4)nc3)cc12` [Compound P-0262, N-[2,4-difluoro-3-[5-[2-(4-hydroxy-1-piperidyl)pyrimidin-5-yl]-1H-pyrrolo[2,3-b]pyridine-3-carbonyl]phenyl]pyrrolidine-1-sulfonamide], the half-inhibitory concentration (IC50) against B-Raf V600E was less than 0.1 µM; in experiment [1], less than 1 µM.

In the case of `CCN(C)S(=O)(=O)Nc1ccc(F)c(C(=O)c2c[nH]c3ncc(-c4cnc(N5CCN(C)CC5)nc4)cc23)c1F` [Compound P-0263, 3-[3-[[ethyl(methyl)sulfamoyl]amino]-2,6-difluoro-benzoyl]-5-[2-(4-methylpiperazin-1-yl)pyrimidin-5-yl]-1H-pyrrolo[2,3-b]pyridine], the IC50 against B-Raf V600E was less than 0.1 µM; in experiment [1], less than 1 µM.

On to `CCN(C)S(=O)(=O)Nc1ccc(F)c(C(=O)c2c[nH]c3ncc(-c4cnc(N5CCNCC5)nc4)cc23)c1F` [Compound P-0268, 3-[3-[[ethyl(methyl)sulfamoyl]amino]-2,6-difluoro-benzoyl]-5-(2-piperazin-1-ylpyrimidin-5-yl)-1H-pyrrolo[2,3-b]pyridine], for which the half-maximal inhibitory concentration (IC50) at B-Raf V600E was less than 0.1 µM; in experiment [1] it was less than 1 µM.

Consider `O=C(c1c(F)ccc(NS(=O)(=O)N2CCCC2)c1F)c1c[nH]c2ncc(-c3cnc(N4CCC4)nc3)cc12` [Compound P-0269, N-[3-[5-[2-(azetidin-1-yl)pyrimidin-5-yl]-1H-pyrrolo[2,3-b]pyridine-3-carbonyl]-2,4-difluoro-phenyl]pyrrolidine-1-sulfonamide], for which the half-inhibitory concentration (IC50) was less than 0.1 µM against B-Raf V600E and less than 1 µM in experiment [1].

On to `C[C@@H]1CCN(S(=O)(=O)Nc2cccc(C(=O)c3c[nH]c4ncc(-c5cnc(C6CC6)nc5)cc34)c2F)C1` [Compound P-0271, (3R)—N-[3-[5-(2-cyclopropylpyrimidin-5-yl)-1H-pyrrolo[2,3-b]pyridine-3-carbonyl]-2-fluoro-phenyl]-3-methyl-pyrrolidine-1-sulfonamide], for which the values for the IC50 (on B-Raf V600E; in experiment [1]) were less than 0.1 µM and less than 1 µM, respectively.

Consider `O=C(c1cccc(NS(=O)(=O)N2CCCC2)c1F)c1c[nH]c2ncc(C3CC3)cc12` [Compound P-0274, N-[3-(5-cyclopropyl-1H-pyrrolo[2,3-b]pyridine-3-carbonyl)-2-fluoro-phenyl]pyrrolidine-1-sulfonamide], for which the half-maximal inhibitory concentration (IC50) is less than 0.1 µM on B-Raf V600E and greater than 1 µM in experiment [1].

`CCN(C)S(=O)(=O)Nc1ccc(F)c(C(=O)c2c[nH]c3ncc(-c4cnc(N5CCC(O)CC5)nc4)cc23)c1F` [Compound P-0275, 3-[3-[[ethyl(methyl)sulfamoyl]amino]-2,6-difluoro-benzoyl]-5-[2-(4-hydroxy-1-piperidyl)pyrimidin-5-yl]-1H-pyrrolo[2,3-b]pyridine]: the results for the IC50 (against B-Raf V600E; in experiment [1]) were less than 0.1 µM and less than 1 µM, respectively.

Turning to `CCN(C)S(=O)(=O)Nc1ccc(F)c(C(=O)c2c[nH]c3ncc(-c4cccc(C5(C#N)CC5)c4)cc23)c1F` [Compound P-0276, 5-[3-(1-cyanocyclopropyl)phenyl]-3-[3-[[ethyl(methyl)sulfamoyl]amino]-2,6-difluoro-benzoyl]-1H-pyrrolo[2,3-b]pyridine], the IC50 is less than 0.1 µM against B-Raf V600E and greater than 1 µM in experiment [1].

For `CCN(C)S(=O)(=O)Nc1ccc(F)c(C(=O)c2c[nH]c3ncc(-c4cnc(N5CCC5)nc4)cc23)c1F` [Compound P-0277, 5-[2-(azetidin-1-yl)pyrimidin-5-yl]-3-[3-[[ethyl(methyl)sulfamoyl]amino]-2,6-difluoro-benzoyl]-1H-pyrrolo[2,3-b]pyridine], the values for the half-maximal inhibitory concentration (IC50) (against B-Raf V600E; in experiment [1]) were greater than 0.1 µM and less than 1 µM, respectively.

`Nc1ncc(-c2cnc3[nH]cc(C(=O)c4c(F)ccc(NS(=O)(=O)N5CCCC5)c4F)c3c2)cn1` [Compound P-0279, N-[3-[5-(2-aminopyrimidin-5-yl)-1H-pyrrolo[2,3-b]pyridine-3-carbonyl]-2,4-difluoro-phenyl]pyrrolidine-1-sulfonamide]: the half-maximal inhibitory concentration (IC50) against B-Raf V600E is less than 0.1 µM; in experiment [1] it was less than 1 µM.

`O=C(c1cccc(NS(=O)(=O)N2CCCC2)c1F)c1c[nH]c2ncc(-c3ccncc3)cc12` [Compound P-0281, N-[2-fluoro-3-[5-(4-pyridyl)-1H-pyrrolo[2,3-b]pyridine-3-carbonyl]phenyl]pyrrolidine-1-sulfonamide]: the 50% inhibitory concentration (IC50) was less than 0.1 µM at B-Raf V600E and less than 1 µM in experiment [1].

For `O=C(c1c(F)ccc(NS(=O)(=O)N2CCCC2)c1F)c1c[nH]c2ncc(-c3ccnc(N4CCOCC4)n3)cc12` [Compound P-0282, N-[2,4-difluoro-3-[5-(2-morpholinopyrimidin-4-yl)-1H-pyrrolo[2,3-b]pyridine-3-carbonyl]phenyl]pyrrolidine-1-sulfonamide], the half-maximal inhibitory concentration (IC50) was less than 0.1 µM against B-Raf V600E and less than 1 µM in experiment [1].

The values above are taken from US20230277534A1 (Plexxikon Inc., priority 2011, published 2023).
